Data as given in patent US11833185B2, “Anti-neurodegenerative therapeutic, method of manufacture, and use” (UNIVERSITY OF KENTUCKY RESEARCH FOUNDATION, priority 2017, dated 2023).
Where a SMILES comes first, the peptide text is derived from it.

Key:
depression = conditions: person, intranasal spray 50 mg daily for 270 days
Experimental: A person presents with the diagnosis of depression. They are administered peptide by intranasal spray at a dosage of 50 mg daily for 270 days. At 1, 90, 180, 270 and 360 days they are tested/retested with a battery of mental status tests including Hamilton Depression Scale (HAMD), Mini Mental Status Exam (MMSE), Beck Depression Index (BDI), Montgomery-Asberg Depression Rating Scale (MADRS), Clinical Global Impression Scale (CGI), Patient Global Impression Scale (PGI), Structural Clinical Interview for Diagnostic and Statistic Manual of Mental Disorders IV (SCID).

MN9D neuronal cells [1] = experiment: LIVE/DEAD and JC-1 assays for toxicity and loss of mitochondrial potentials; conditions: 100 nM, 1 and 3 hours post treatment
Experimental: (§1) Testing involved permutations of size and diversifying amino acid sequence at each residue position. Sequence design began with Proline-Proline-Glutamate-Alanine-Proline-Alanine-Glutamate-Aspartate-Arginine-Serine-Leucine-NH2. […] These properties were tested using the dopaminergic MN9D neuronal cell line. Each candidate peptide sequence was dissolved in citrate buffer and added to MN9D cells (Choi et al., 1992) that were cultured in Dulbecco's Modified Eagle's Medium [DMEM (containing pyridoxol HCl); Sigma, St. Louis, MO] supplemented with 10% Fetal Bovine serum (HyClone, Logan, UT), 50 U/ml penicillin and streptomycin to a final 100 nM concentration. Using LIVE/DEAD and JC-1 assays in MN9D neuronal cells, individual library sequences were measured for toxicity and loss of mitochondrial potentials at 1 and 3 hours post treatment. […] The remaining sequences were then tested for their ability to provide protection against neurotoxins rotenone, 1-methyl-4-phenylpyridinium (MPP+), and trichloromethyl-1,2,3,4-tetrahydro-β-carboline (TaClo).

MN9D neuronal cells [2] = experiment: Protection of mitochondrial potentials against rotenone, MPP+ and TaClo-induced cytotoxicity; type: cell-based; conditions: 100 nM pretreatment, 1, 3, 12, 24 hours
Experimental: as §1

Compound | HAMD from day 1 over 360 days (depression) | toxicity (MN9D neuronal cells [1]) | protection against neurotoxins (rotenone, MPP+, TaClo) (MN9D neuronal cells [2])
Ac-Leucine-D-Methionine-Proline-Alanine-deuterated Serine-Phenylalanine [SEQ ID NO: 9] | improvement in HAMD |  | 
C[C@H](NC(=O)[C@@H]1CCCN1C(=O)[C@H](C)NC(=O)[C@@H](N)CCC(=O)O)C(=O)N[C@@H](CCC(=O)O)C(=O)N[C@@H](CC(=O)O)C(N)=O [SEQ ID NO: 11, Glutamate-Alanine-Proline-Alanine-Glutamate-Aspartate-NH2] (H-EAPAED-NH2; N-terminus assumed) |  | low toxicity | protection against neurotoxin exposure at all time points measured
